Source: the supplement of paper PMC10307832

These cell lines were tested with Cc1ccc(C(=O)Nc2ccc(CN3CCN(C)CC3)c(C(F)(F)F)c2)cc1C#Cc1cnc2cccnn12 [Ponatinib] + CC(=O)c1c(C)c2cnc(Nc3ccc(N4CCNCC4)cn3)nc2n(C2CCCC2)c1=O [Palbociclib] (partner 0.5 µM) (assay: relative viability (nuclei count vs DMSO), 5 days (fraction); higher = more cells survive). Settings: first compound 0.002 µM.
In short: (§1)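 Cells from lung cancer lines were seeded into 1536-well plates and, one day later, dosed by pin tool. Treatments were either a single drug or a fixed dose of an anchor drug with five library-drug doses (not always all listed) in √10 steps. After 5 days, nuclei were stained in a one-step fixation (final 0.05% Triton X-100, 1% formaldehyde, 1 ug/ml Hoechst) and counted on 4× images, and relative viability is the treated-to-vehicle nuclei ratio, as the median of duplicate plates.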

Cell Line	relative viability
NCI-H2342	0.548
NCI-H838	0.216
NCI-H1650	0.345
NCI-H1993	0.557
NCI-H2347	0.504
PC-14	0.464
LCLC-103H	0.464
NCI-H2126	0.365
EMC-BAC-2	0.469
NCI-H2085	0.466
HCC-366	0.339
NCI-H1666	0.661
NCI-H647	0.358
LK-2	0.643
NCI-H2087	0.259
NCI-H1648	0.266
NCI-H1395	0.626
H3255	0.325

Cell Line	relative viability
COR-L23	0.271
COR-L 105	0.351
LOU-NH91	0.587
ChaGo-K-1	0.887
NCI-H358	0.137
NCI-H3122	0.194
HOP-62	0.378
HCC-44	0.891
NCI-H522	1.05
LU99A	0.37
BEN	0.453
HARA	0.246
SW 900	0.484
HCC-78	0.422
NCI-H441	0.238
LCLC-97TM1	0.233
NCI-H2009	0.161
A-427	0.511

Same assay, conditions: first compound 0.006325 µM

Cell Line	relative viability
NCI-H2342	0.522
NCI-H838	0.234
NCI-H1650	0.365
NCI-H1993	0.613
NCI-H2347	0.441
PC-14	0.533
LCLC-103H	0.517
NCI-H2126	0.34
EMC-BAC-2	0.486
NCI-H2085	0.458
HCC-366	0.361
NCI-H1666	0.659
NCI-H647	0.345
LK-2	0.744
NCI-H2087	0.25
NCI-H1648	0.245
NCI-H1395	0.671
H3255	0.312

Cell Line	relative viability
COR-L23	0.287
COR-L 105	0.4
LOU-NH91	0.531
ChaGo-K-1	0.964
NCI-H358	0.129
NCI-H3122	0.186
HOP-62	0.374
HCC-44	0.981
NCI-H522	0.982
LU99A	0.433
BEN	0.528
HARA	0.332
SW 900	0.485
HCC-78	0.528
NCI-H441	0.229
LCLC-97TM1	0.239
NCI-H2009	0.225
A-427	0.535

Same assay, conditions: first compound 0.06325 µM

Cell Line	relative viability
NCI-H2342	0.461
NCI-H838	0.219
NCI-H1650	0.413
NCI-H1993	0.779
NCI-H2347	0.451
PC-14	0.73
LCLC-103H	0.491
NCI-H2126	0.374
EMC-BAC-2	0.476
NCI-H2085	0.509
HCC-366	0.423
NCI-H1666	0.666
NCI-H647	0.47
LK-2	0.768
NCI-H2087	0.259
NCI-H1648	0.246
NCI-H1395	0.572
H3255	0.297

Cell Line	relative viability
COR-L23	0.272
COR-L 105	0.404
LOU-NH91	0.528
ChaGo-K-1	0.936
NCI-H358	0.148
NCI-H3122	0.213
HOP-62	0.334
HCC-44	0.932
NCI-H522	1.18
LU99A	0.407
BEN	0.469
HARA	0.228
SW 900	0.569
HCC-78	0.418
NCI-H441	0.252
LCLC-97TM1	0.252
NCI-H2009	0.238
A-427	0.528

Same assay, conditions: first compound 0.2 µM

Cell Line	relative viability
NCI-H2342	0.498
NCI-H838	0.21
NCI-H1650	0.335
NCI-H1993	0.771
NCI-H2347	0.404
PC-14	0.584
LCLC-103H	0.431
NCI-H2126	0.333
EMC-BAC-2	0.42
NCI-H2085	0.509
HCC-366	0.361
NCI-H1666	0.639
NCI-H647	0.438
LK-2	0.757
NCI-H2087	0.329
NCI-H1648	0.252
NCI-H1395	0.47
H3255	0.297

Cell Line	relative viability
COR-L23	0.229
COR-L 105	0.447
LOU-NH91	0.549
ChaGo-K-1	0.856
NCI-H358	0.136
NCI-H3122	0.203
HOP-62	0.376
HCC-44	0.852
NCI-H522	0.814
LU99A	0.363
BEN	0.47
HARA	0.246
SW 900	0.516
HCC-78	0.471
NCI-H441	0.209
LCLC-97TM1	0.221
NCI-H2009	0.202
A-427	0.438

These cell lines were tested with Cc1ccc(C(=O)Nc2ccc(CN3CCN(C)CC3)c(C(F)(F)F)c2)cc1C#Cc1cnc2cccnn12 [Ponatinib] + COc1cccc2cc(-c3nc([C@H]4CC[C@H](C(=O)O)CC4)n4ncnc(N)c34)[nH]c12 [OSI-027] (partner 0.5 µM) in the same assay as above. Settings: first compound 0.002 µM.
In short: as §1

Cell Line	relative viability
NCI-H2342	0.557
NCI-H1623	0.446
NCI-H838	0.416
NCI-H1650	0.611
NCI-H1993	0.516
NCI-H2347	0.373
PC-14	0.747
LCLC-103H	0.43
NCI-H596	0.653
NCI-H2126	0.779
EMC-BAC-2	0.368
NCI-H2085	0.624
HCC-366	0.821
NCI-H1666	0.727
NCI-H647	0.565
LK-2	0.151
NCI-H2087	0.667
NCI-H1648	0.249
NCI-H1395	0.519
H3255	0.666

Cell Line	relative viability
COR-L23	0.707
COR-L 105	0.638
LOU-NH91	0.675
ChaGo-K-1	0.465
NCI-H358	0.813
NCI-H3122	1
HOP-62	0.727
HCC-44	0.482
NCI-H522	0.641
LU99A	0.299
BEN	0.3
HARA	0.435
SW 900	0.465
HCC-78	0.332
NCI-H441	0.47
LCLC-97TM1	0.448
NCI-H2009	0.486
A-427	0.49
NCI-H1563	0.764

Same assay, conditions: first compound 0.006325 µM

Cell Line	relative viability
NCI-H2342	0.602
NCI-H1623	0.432
NCI-H838	0.416
NCI-H1650	0.66
NCI-H1993	0.495
NCI-H2347	0.421
PC-14	0.778
LCLC-103H	0.382
NCI-H596	0.619
NCI-H2126	0.818
EMC-BAC-2	0.376
NCI-H2085	0.704
HCC-366	0.984
NCI-H1666	0.762
NCI-H647	0.716
LK-2	0.217
NCI-H2087	0.525
NCI-H1648	0.299
NCI-H1395	0.57
H3255	0.566

Cell Line	relative viability
COR-L23	0.73
COR-L 105	0.807
LOU-NH91	0.762
ChaGo-K-1	0.594
NCI-H358	0.816
NCI-H3122	0.988
HOP-62	0.759
HCC-44	0.413
NCI-H522	0.683
LU99A	0.319
BEN	0.305
HARA	0.497
SW 900	0.575
HCC-78	0.418
NCI-H441	0.606
LCLC-97TM1	0.561
NCI-H2009	0.496
A-427	0.429
NCI-H1563	0.711

Same assay, conditions: first compound 0.06325 µM

Cell Line	relative viability
NCI-H2342	0.53
NCI-H1623	0.418
NCI-H838	0.482
NCI-H1650	0.748
NCI-H1993	0.469
NCI-H2347	0.371
PC-14	0.933
LCLC-103H	0.453
NCI-H596	0.516
NCI-H2126	0.845
EMC-BAC-2	0.39
NCI-H2085	0.753
HCC-366	1
NCI-H1666	0.872
NCI-H647	0.69
LK-2	0.162
NCI-H2087	0.593
NCI-H1648	0.261
NCI-H1395	0.558
H3255	0.613

Cell Line	relative viability
COR-L23	0.766
COR-L 105	1.03
LOU-NH91	0.746
ChaGo-K-1	0.571
NCI-H358	0.998
NCI-H3122	1.02
HOP-62	0.883
HCC-44	0.402
NCI-H522	0.65
LU99A	0.32
BEN	0.312
HARA	0.476
SW 900	0.623
HCC-78	0.366
NCI-H441	0.482
LCLC-97TM1	0.606
NCI-H2009	0.759
A-427	0.396
NCI-H1563	0.687

Same assay, conditions: first compound 0.2 µM

Cell Line	relative viability
NCI-H2342	0.637
NCI-H1623	0.447
NCI-H838	0.349
NCI-H1650	0.568
NCI-H1993	0.567
NCI-H2347	0.239
PC-14	0.699
LCLC-103H	0.419
NCI-H596	0.392
NCI-H2126	0.563
EMC-BAC-2	0.368
NCI-H2085	0.727
HCC-366	0.655
NCI-H1666	0.79
NCI-H647	0.502
LK-2	0.147
NCI-H2087	0.563
NCI-H1648	0.282
NCI-H1395	0.505
H3255	0.526

Cell Line	relative viability
COR-L23	0.604
COR-L 105	0.744
LOU-NH91	0.741
ChaGo-K-1	0.493
NCI-H358	0.672
NCI-H3122	0.834
HOP-62	0.72
HCC-44	0.408
NCI-H522	0.578
LU99A	0.278
BEN	0.332
HARA	0.393
SW 900	0.577
HCC-78	0.528
NCI-H441	0.388
LCLC-97TM1	0.28
NCI-H2009	0.545
A-427	0.215
NCI-H1563	0.692

Each cell line was assayed with Cc1ccc(C(=O)Nc2ccc(CN3CCN(C)CC3)c(C(F)(F)F)c2)cc1C#Cc1cnc2cccnn12 [Ponatinib] + N=C(N)NC(=N)NCCc1ccccc1 [Phenformin] (partner 250 µM) in the same assay as above. Settings: first compound 0.002 µM.
In short: as §1

Cell Line	relative viability
NCI-H2342	0.5
NCI-H1623	0.567
NCI-H838	0.567
NCI-H1650	0.454
NCI-H1993	0.57
NCI-H2347	0.34
PC-14	0.443
LCLC-103H	0.275
NCI-H596	0.621
NCI-H2126	0.509
EMC-BAC-2	0.495
NCI-H2085	0.649
HCC-366	0.602
NCI-H1666	0.564
NCI-H647	0.413
NCI-H2087	0.517
NCI-H1395	0.417
H3255	0.366
COR-L23	0.382
COR-L 105	0.421
LOU-NH91	0.683
